# Source: patent publication US20170143712A1, “Methods of Treating Cancers, Immune and Autoimmune Diseases, and Inflammatory Diseases Based on BTK Occupancy and BTK Resynthesis Rate” (Acerta Pharma B.V., priority 2014, published 2017)
# Key:
# BTK = BTK (Homo sapiens, UniProt Q06187); experiment: Per cell BTK protein level in CD19+/CD5+ CLL tumor cells (flow cytometry); format: in vivo; settings: 100 mg BID, after 4 weeks of treatment
# Method: Peripheral blood samples were obtained and BTK protein levels were evaluated in CD19+/CD5+ tumor cells by flow cytometry.
# MDA-MB-231 tumor cells = experiment: Osteolytic bone lesions after intratibial MDA-MB-231 tumor inoculation in nude rats; format: in vivo, rat; design: mean visual lysis score: scale not given here; mean left tibial density: unit not given here
# Method: FIG. 40A, FIG. 40B, FIG. 40C, FIG. 40D, FIG. 40E, FIG. 40F, and FIG. 40G illustrate the bone density in hind limbs of nude rats (n=6 per group) implanted with intratibial MDA-MB231 tumor […] and treated for up to 41 days with vehicle control, zoledronate (active control) or varying doses of Formula (II). Oral gavage administration of Formula (II) was scheduled as 3 days of initial QD dosing, followed by 30 days of BID dosing at the following dose levels: 3/3, 30/30, and 180/90 mg/kg/day. An untreated group of rats, without tibial implants (n=3) represents bone density of concurrently obtained normal rat tibial images. Statistical significance was determined by two-way ANOVA-Dunnett: ns=not significant, *=P<0.05, **=P<0.01, ***=P<0.001, versus Group 1.
# Rats were inoculated with MDA-MB-231 tumor cells on Day 1, baseline radiographs were taken on Day 2, and treatment with Formula (II) began on Day 8. Radiographs were taken on Days 10, 17, 24, 31, 38, and 41. Anti-osteolytic activities were determined from differences in bone density and visual lysis scores between the drug-treated and vehicle-treated groups on each observation day, and also from changes in bone density and visual lysis scores in tumor-inoculated left tibias at baseline (Day 2) compared to Days 10, 17, 24,31, 38, and 41.
# Radiographs were blinded for both analyses. […] Visual osteolysis was not detected in any rat in the nave group. The 4% increase in mean bone density from baseline to study end presumably reflected normal growth in these rats.
# [1] = tested on: established type II collagen-induced arthritis (CIA) in DBA/1 mice; experiment: Mouse established CIA, dosing from arthritis day 8, QD or BID (Example 11); format: in vivo; settings: for AUC (All Paws) - Corrected for Initial Score / Change in Body Weight (g) Days 1-19 / Histopathology Summed Score Knees / Histopathology Summed Score Paws / Histopathology Summed Score Six-Joints / Paw Score AUC (All Paws): mean(SE)
# Description: A study was designed to determine the efficacy of a covalently acting BTK inhibitor, Formula (II) in inhibiting acute inflammation, pannus formation, cartilage destruction, and bone resorption associated with established type II collagen-induced arthritis (CIA) in DBA/1 mice. Immunization with heterologous type II collagen (CII) induces arthritis in mice of the DBA/1 strain, which is genetically susceptible to this disease. To develop an experimental model of autoimmunity more adequate for the study of human rheumatoid arthritis (RA), male DBA/1 mice were injected intradermally (ID) with bovine type II collagen to induce arthritis as reported by Trentham et al (Trentham D E, Townes A S, Kang A H Autoimmunity to type II collagen: an experimental model of arthritis. J. Exper. Med. 1977, 146:857-868) and Bendele A (Bendele A, Animal models of rheumatoid arthritis. J. Musculoskelet. Neuronal Interact. 2001, 1(4):377-85).
# Following acclimatization, 6-7 week old male DBA/1 mice (n=10/group for arthritis) were immunized at the base of the tail, with 150 μL of Freund's Complete Adjuvant (Difco, Detroit, Mich.) containing 1 mg/mL bovine type II collagen by intradermal injection. Immunizations were performed day 0 and again on day 21. On study days 25-26, on day 8 following onset of arthritis, the mice were randomized into treatment groups. […] Dosing began on arthritis day 8 by oral gavage. Groups were treated with vehicle (0.4% HPMC, 0.2% Tween 80), Formula (II) at 25 mg/kg QD, Formula (II) at 12.5 mg/kg BID, or the reference compound dexamethasone (Dex) at 0.2 mg/kg QD. These animals were fasted overnight on arthritis day 20 (13 days after enrollment) prior to necropsy on arthritis day 21. Clinical scores were given for each of the paws (right front, left front, right rear, left rear) on arthritis days 1-21.
# Efficacy evaluation was based on animal body weights, clinical arthritis scores, arthritis scores expressed as area under the curve (AUC), and histopathology on fore paws, hind paws, and knees. Histopathology results were expressed as 4 paws, knees only, or 6 joints (knees included). Day 19 was used as the endpoint for analysis of body weight change since the male DBA/1 mice were fasted overnight prior to necropsy on day 21.
# Necropsies were conducted on fasted mice and terminal serum, fore paws, hind paws, and knees were collected into 10% neutral buffered formalin (NBF) for microscopy. Spleens were harvested and weighed.
# [2] = 180 QD/90 BID mg/kg (Group 5), Day 31
# [3] = 180 QD/90 BID mg/kg (Group 5), Day 41
# Sequence of BTK (Q06187 whole entry): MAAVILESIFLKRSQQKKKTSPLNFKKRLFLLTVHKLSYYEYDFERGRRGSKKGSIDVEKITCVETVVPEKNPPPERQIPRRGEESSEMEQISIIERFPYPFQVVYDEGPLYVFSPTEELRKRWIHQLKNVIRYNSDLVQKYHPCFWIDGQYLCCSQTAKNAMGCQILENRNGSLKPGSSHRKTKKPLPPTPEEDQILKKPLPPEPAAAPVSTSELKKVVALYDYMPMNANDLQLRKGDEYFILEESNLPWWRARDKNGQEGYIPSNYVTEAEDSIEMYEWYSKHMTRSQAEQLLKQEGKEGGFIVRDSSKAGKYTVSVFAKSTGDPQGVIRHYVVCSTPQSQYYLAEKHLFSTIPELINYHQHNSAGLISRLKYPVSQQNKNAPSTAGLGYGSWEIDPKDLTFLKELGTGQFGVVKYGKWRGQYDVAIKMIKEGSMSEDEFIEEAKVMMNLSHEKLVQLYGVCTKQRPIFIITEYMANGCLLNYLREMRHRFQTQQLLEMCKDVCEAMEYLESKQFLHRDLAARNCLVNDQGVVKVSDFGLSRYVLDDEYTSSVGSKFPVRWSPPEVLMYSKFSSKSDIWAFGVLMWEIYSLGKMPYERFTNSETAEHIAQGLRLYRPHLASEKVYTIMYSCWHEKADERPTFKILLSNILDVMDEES
structure (smiles),measurement,setting,value
"CC#CC(=O)N1CCC[C@H]1c1nc(-c2ccc(C(=O)Nc3ccccn3)cc2)c2c(N)nccn12 [Formula (II), (S)-4-(8-amino-3-(1-(but-2-ynoyl)pyrrolidin-2-yl)imidazo[1,5-a]pyrazin-1-yl)-N-(pyridin-2-yl)benzamide]","decrease in BTK protein expression per cell (median, of pre-dose values)",BTK,26%
same,left tibial bone density compared to vehicle controls,"MDA-MB-231 tumor cells; 3 or 30 mg/kg, any observation day excluding Day 24 for 30 mg/kg",no significant differences
same,left intratibial densities compared to control Group 1,MDA-MB-231 tumor cells; 180 QD/90 BID mg/kg (Group 5),"significantly greater compared to control Group 1 on Day 31, but not Day 41"
same,mean left tibial density,"MDA-MB-231 tumor cells; 180 QD/90 BID mg/kg (Group 5), Day 2 baseline",201.4±0.6
same,decrease in mean left tibial density,"MDA-MB-231 tumor cells; 180 QD/90 BID mg/kg (Group 5), Day 2 to Days 31 and 41",1-2%
same,mean left tibial density,MDA-MB-231 tumor cells; [2],199.1±0.6
same,mean visual lysis score,MDA-MB-231 tumor cells; [2],1.2
same,mean left tibial density,MDA-MB-231 tumor cells; [3],197.2±0.6
same,mean visual lysis score,MDA-MB-231 tumor cells; [3],1.5
same,rats that never developed visible left tibial lesions,"MDA-MB-231 tumor cells; 180 QD/90 BID mg/kg (Group 5), n=6",Two rats
same,"Clinical arthritis score AUC (d8-d21), reduction vs vehicle controls",[1]; 12.5 mg/kg BID,59%
same,"absolute spleen weights, reduction vs vehicle controls",[1]; 12.5 mg/kg BID,64%
same,"knee bone resorption, reduction vs vehicle controls",[1]; 12.5 mg/kg BID,78%
same,"knee inflammation, reduction vs vehicle controls",[1]; 12.5 mg/kg BID,49%
same,"knee pannus formation, reduction vs vehicle controls",[1]; 12.5 mg/kg BID,80%
same,"six joint histopathology, reduction of summed scores",[1]; 12.5 mg/kg BID,53%
same,"summed knee scores, reduction vs vehicle controls",[1]; 12.5 mg/kg BID,45%
same,arthritis scores measured daily vs vehicle controls,"[1]; 12.5 mg/kg BID, p<0.05 on days 9-21",significantly reduced toward normal
same,AUC (All Paws) - Corrected for Initial Score,[1]; 12.5 mg/kg PO BID,*−23.05(2.58)
same,Change in Body Weight (g) Days 1-19,[1]; 12.5 mg/kg PO BID,†0.64(0.69) g
same,Histopathology Summed Score Knees,[1]; 12.5 mg/kg PO BID,*6.73(0.60)
same,Histopathology Summed Score Paws,[1]; 12.5 mg/kg PO BID,*7.49(1.03)
same,Histopathology Summed Score Six-Joints,[1]; 12.5 mg/kg PO BID,*7.23(0.77)
same,Paw Score AUC (All Paws),[1]; 12.5 mg/kg PO BID,*22.45(2.68)
same,AUC (All Paws) - Corrected for Initial Score,[1]; 25 mg/kg PO QD,*−24.48(3.85)
same,Change in Body Weight (g) Days 1-19,[1]; 25 mg/kg PO QD,2.37(0.28) g
same,Histopathology Summed Score Knees,[1]; 25 mg/kg PO QD,*6.00(0.76)
same,Histopathology Summed Score Paws,[1]; 25 mg/kg PO QD,*7.11(0.98)
same,Histopathology Summed Score Six-Joints,[1]; 25 mg/kg PO QD,*6.74(0.80)
same,Paw Score AUC (All Paws),[1]; 25 mg/kg PO QD,*23.63(3.37)
same,"Clinical arthritis score AUC (d8-d21), reduction vs vehicle controls",[1]; 25 mg/kg QD,56%
same,"knee bone resorption, reduction vs vehicle controls",[1]; 25 mg/kg QD,82%
same,"knee cartilage damage, reduction vs vehicle controls",[1]; 25 mg/kg QD,28%
same,"knee inflammation, reduction vs vehicle controls",[1]; 25 mg/kg QD,53%
same,"knee pannus formation, reduction vs vehicle controls",[1]; 25 mg/kg QD,82%
same,"six joint histopathology, reduction of summed scores",[1]; 25 mg/kg QD,56%
same,"summed knee scores, reduction vs vehicle controls",[1]; 25 mg/kg QD,51%
same,tolerability,"[1]; 25 mg/kg QD or 12.5 mg/kg BID, DBA/1 mice",well tolerated
same,arthritis scores measured daily vs vehicle controls,"[1]; 25 mg/kg QD, p<0.05 on days 11-21",significantly reduced toward normal
